These results are taken from paper PMC9919591, “New Triazine Derivatives as Serotonin 5-HT6 Receptor Ligands” (Molecules, 2023).

SMILES strings stand for the structures. pKi: −log10 of the molar value. Structures can show the parent of a compound that is named as a salt.

One series concerns the target T1, human D2R (Homo sapiens, UniProt P14416).
T1 construct: expressed in transfected cells; host or cells: HEK293
The series is described as follows: Radioligand binding assay, D2R ([3H]-raclopride). To be noted: HEK293 cells stably expressing human D2R. The method, then: (§1) Affinity for serotonin 5-HT2A, 5-HT7 and dopamine D2 receptors (D2R) as protein off-targets was evaluated in the radioligand binding assays. In CHO-K1 cells, it was stably expressed human 5-HT2AR, whereas human 5-HT7R and D2R were stably expressed in HEK293 cells. […] A particularly weak affinity towards this receptor was shown through compounds of series 1 (compounds 1–7) and series 2 (compounds 8–13). […]. Radioligand binding assays were used to determine the affinity of the synthesized compounds for human serotonin 5-HT6R, 5-HT2AR, 5-HT7R and dopamine D2R, which were stably expressed in HEK293 cells or CHOk1 cells (5-HT2AR). This was done as described previously.

Another series concerns the target T2, human 5-HT2AR (Homo sapiens, UniProt P28223).
T2 construct: expressed in transfected cells; host or cells: CHO-K1
The series is described as follows: Radioligand binding assay, 5-HT2AR ([3H]-ketanserin). The note with it: CHO-K1 cells stably expressing human 5-HT2AR. The protocol: as §1

Another series deals with T3, human 5-HT7R (Homo sapiens, UniProt P34969).
T3 construct: expressed in transfected cells; host or cells: HEK293
Nature of the series: Radioligand binding assay, 5-HT7R ([3H]-5-CT). To be noted: HEK293 cells stably expressing human 5-HT7R. The method, then:
as §1

In a further series the target is T4, human 5-HT6R (Homo sapiens, UniProt P50406).
T4 construct: expressed in transfected cells; host or cells: HEK293
The series is described as follows: Radioligand binding assay, 5-HT6R ([3H]-LSD). To be noted: for pKi: [3H]-LSD, HEK293 cells stably expressing human 5-HT6R, average of at least two independent experiments; for decrease in affinity for 5-HT6R compared to MST4: ratio of Ki values vs MST4 (Ki = 11 nM). The protocol:
The affinity of compounds (1–25) for 5-HT6R was evaluated in the radioligand binding assay in HEK293 cells stably expressing human 5-HT6R. [^3H]-LSD as a radioligand was used. […] All results are collected in Table 1, Table 2 and Table 3.
Radioligand binding assays were used to determine the affinity of the synthesized compounds for human serotonin 5-HT6R, 5-HT2AR, 5-HT7R and dopamine D2R, which were stably expressed in HEK293 cells or CHOk1 cells (5-HT2AR). This was done as described previously.

T2 sequence (P28223 whole entry): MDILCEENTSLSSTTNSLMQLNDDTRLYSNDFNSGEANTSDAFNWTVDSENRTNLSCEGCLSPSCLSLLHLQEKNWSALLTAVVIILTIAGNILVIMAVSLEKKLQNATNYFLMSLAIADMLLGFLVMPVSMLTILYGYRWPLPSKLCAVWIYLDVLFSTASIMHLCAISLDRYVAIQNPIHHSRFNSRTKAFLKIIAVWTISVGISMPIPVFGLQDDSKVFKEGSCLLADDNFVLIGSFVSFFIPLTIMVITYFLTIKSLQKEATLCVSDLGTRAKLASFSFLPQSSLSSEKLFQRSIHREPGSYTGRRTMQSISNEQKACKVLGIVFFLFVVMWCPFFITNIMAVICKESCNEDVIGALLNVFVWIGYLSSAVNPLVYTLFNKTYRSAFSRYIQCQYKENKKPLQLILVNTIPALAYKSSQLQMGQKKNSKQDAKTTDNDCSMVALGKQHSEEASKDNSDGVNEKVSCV
T4 sequence (P50406 whole entry): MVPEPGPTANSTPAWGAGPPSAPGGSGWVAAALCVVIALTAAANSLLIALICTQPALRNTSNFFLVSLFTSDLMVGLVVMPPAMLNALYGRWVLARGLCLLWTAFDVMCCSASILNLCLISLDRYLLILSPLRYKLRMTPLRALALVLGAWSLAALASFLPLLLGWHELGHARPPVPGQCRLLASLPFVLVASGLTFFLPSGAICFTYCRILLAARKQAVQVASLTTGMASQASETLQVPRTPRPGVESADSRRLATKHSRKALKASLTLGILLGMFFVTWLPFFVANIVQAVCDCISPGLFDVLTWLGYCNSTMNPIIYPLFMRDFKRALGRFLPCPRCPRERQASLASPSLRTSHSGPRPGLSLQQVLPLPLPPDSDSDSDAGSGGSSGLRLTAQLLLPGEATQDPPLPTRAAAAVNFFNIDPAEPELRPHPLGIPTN
T3 sequence (P34969 whole entry): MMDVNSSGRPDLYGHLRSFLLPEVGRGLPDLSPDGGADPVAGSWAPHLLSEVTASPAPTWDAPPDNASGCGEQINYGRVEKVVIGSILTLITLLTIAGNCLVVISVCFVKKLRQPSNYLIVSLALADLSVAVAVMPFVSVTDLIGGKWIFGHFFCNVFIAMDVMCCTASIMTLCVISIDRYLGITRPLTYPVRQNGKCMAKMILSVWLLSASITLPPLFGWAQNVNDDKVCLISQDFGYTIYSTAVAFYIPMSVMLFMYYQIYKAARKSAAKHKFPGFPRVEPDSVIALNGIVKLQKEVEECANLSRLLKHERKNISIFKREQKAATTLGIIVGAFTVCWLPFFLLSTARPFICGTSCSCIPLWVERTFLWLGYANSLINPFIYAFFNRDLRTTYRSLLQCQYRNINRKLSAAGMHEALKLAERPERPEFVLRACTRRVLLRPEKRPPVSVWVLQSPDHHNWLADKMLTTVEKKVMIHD
T1 sequence (P14416 whole entry): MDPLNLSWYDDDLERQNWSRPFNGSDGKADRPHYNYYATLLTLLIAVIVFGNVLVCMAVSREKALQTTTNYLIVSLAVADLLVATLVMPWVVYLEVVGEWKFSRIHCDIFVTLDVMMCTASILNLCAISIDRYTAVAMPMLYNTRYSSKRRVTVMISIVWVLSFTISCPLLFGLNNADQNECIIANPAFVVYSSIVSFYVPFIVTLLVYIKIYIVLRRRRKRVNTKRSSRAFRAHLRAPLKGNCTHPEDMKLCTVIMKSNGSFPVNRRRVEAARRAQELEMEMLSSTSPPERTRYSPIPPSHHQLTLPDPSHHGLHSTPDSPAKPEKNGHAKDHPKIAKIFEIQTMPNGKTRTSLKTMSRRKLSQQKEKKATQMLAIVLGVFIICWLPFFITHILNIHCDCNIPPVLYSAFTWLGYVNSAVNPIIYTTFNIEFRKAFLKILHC

The term melting point denotes the temperature, or range, at which the solid turns liquid. For `CN1CCN(c2nc(N)nc(COc3ccc(C(C)(C)C)cc3C(C)(C)C)n2)CC1` (as salt: hydrochloride) [Compound 13, 4-((2,4-(di-tert-Butyl)phenoxy)methyl)-6-(4-methylpiperazin-1-yl)-1,3,5-triazin-2-amine hydrochloride], the melting point is 284 to 287 °C.

As usually defined, the pKi is −log10 of the Ki, conventionally taken in molar units. A high value points to a small Ki. As to `CN1CCN(c2nc(N)nc(COc3ccc(C(C)(C)C)cc3)n2)CC1` [Compound 7, 4-((4-(tert-Butyl)phenoxy)methyl)-6-(4-methylpiperazin-1-yl)-1,3,5-triazin-2-amine], the melting point was 104.4 °C (dec.). The pKi on human D2R was 5.50. At human 5-HT2AR, this compound gave a negative logarithm of the Ki (pKi) of 6.26. The compound further showed a pKi at human 5-HT7R of 5.38. The compound further had a pKi on human 5-HT6R of 6.82.

Regarding `Cc1ccc(C(C)C)c(OCCCCCc2nc(N)nc(N3CCN(C)CC3)n2)c1` [Compound 22, 4-(5-(2-Isopropyl-5-methylphenoxy)pentyl)-6-(4-methylpiperazin-1-yl)-1,3,5-triazin-2-amine], the melting point was 75 °C (dec.). The compound further had a pKi on human D2R of 6.08. On human 5-HT2AR, this compound had a pKi of 6.15. The pKi on human 5-HT7R was 6.11. Also, at human 5-HT6R, the pKi is 6.55.

On to `Cc1ccc(C(C)C)c(OCCCc2nc(N)nc(N3CCN(C)CC3)n2)c1` [Compound 14, 4-(3-(2-Isopropyl-5-methylphenoxy)propyl)-6-(4-methylpiperazin-1-yl)-1,3,5-triazin-2-amine], for which the melting point was found to be 77 °C. Also, the pKi at human D2R is 5.80. Moreover, the pKi on human 5-HT2AR is 5.77. Further, on human 5-HT7R, the pKi was 5.18. Also, the pKi on human 5-HT6R is 6.39.

In turn, `CC(C)c1ccccc1OCCCc1nc(N)nc(N2CCN(C)CC2)n1.Cl` [Compound 15, 4-(3-(2-Isopropylphenoxy)propyl)-6-(4-methylpiperazin-1-yl)-1,3,5-triazin-2-amine hydrochloride] came in with a melting point of 235 °C. The pKi on human D2R is 5.61. The same compound had a pKi at human 5-HT2AR of 6.31. Also, the pKi at human 5-HT7R was 5.05. The compound further had a pKi on human 5-HT6R of 6.66.

`CN1CCN(c2nc(N)nc(COc3c(C(C)(C)C)cccc3C(C)(C)C)n2)CC1` [Compound 12, 4-((2,6-(di-tert-Butyl)phenoxy)methyl)-6-(4-methylpiperazin-1-yl)-1,3,5-triazin-2-amine hydrochloride]: the figures for the pKi at human 5-HT7R and on human 5-HT6R were 5.09 and 6.42, respectively.

`CC(C)c1ccccc1OCCCCc1nc(N)nc(N2CCN(C)CC2)n1` [Compound 20, 4-(4-(2-Isopropylphenoxy)butyl)-6-(4-methylpiperazin-1-yl)-1,3,5-triazin-2-amine] gave a melting point of 59 °C. The compound also showed a pKi at human D2R of 5.24. On human 5-HT2AR, this compound gave a pKi of 6.17. At human 5-HT7R, this compound gave a negative-log Ki (pKi) of 6.18. Moreover, on human 5-HT6R, the pKi is 7.37.

In the case of `CC(C)c1ccccc1OCCCCCc1nc(N)nc(N2CCN(C)CC2)n1` [Compound 23, 4-(5-(2-Isopropylphenoxy)pentyl)-6-(4-methylpiperazin-1-yl)-1,3,5-triazin-2-amine], the melting point was in the range of 63 to 65 °C. This compound gave a pKi on human D2R of 6.71. This compound also gave a pKi at human 5-HT2AR of 6.22. This compound also showed a pKi at human 5-HT7R of 5.46. The same compound showed a pKi on human 5-HT6R of 6.72.

Regarding `Cc1cccc(C(C)(C)C)c1OCc1nc(N)nc(N2CCN(C)CC2)n1` [Compound 10, 4-((2-(tert-Butyl)-6-methylphenoxy)methyl)-6-(4-methylpiperazin-1-yl)-1,3,5-triazin-2-amine], the melting point is 177 to 179 °C (dec.). This compound also had a pKi at human 5-HT7R of 4.78. The pKi at human 5-HT6R was 6.63.

Take `Cc1cccc(OCCCc2nc(N)nc(N3CCN(C)CC3)n2)c1` [Compound 17, 4-(4-Methylpiperazin-1-yl)-6-(3-(m-tolyloxy)propyl)-1,3,5-triazin-2-amine]: the melting point lay in the range of 114 to 117 °C. At human D2R, this compound gave a pKi of 5.59. On human 5-HT2AR, this compound showed a pKi of 5.41. Further, on human 5-HT7R, the pKi was 4.52. The compound also gave a pKi at human 5-HT6R of 5.84.

Regarding `Cc1ccc(OCc2nc(N)nc(N3CCN(C)CC3)n2)c(C(C)(C)C)c1` [Compound 9, 4-((2-(tert-Butyl)-4-methylphenoxy)methyl)-6-(4-methylpiperazin-1-yl)-1,3,5-triazin-2-amine], the melting point was 146.5 °C (dec.). The same compound gave a negative-log Ki (pKi) at human D2R of 5.64. For the same compound, on human 5-HT2AR, the negative logarithm of the Ki (pKi) is 5.71. At human 5-HT7R, this compound gave a pKi of 4.96. In addition, the negative-log Ki (pKi) on human 5-HT6R was 7.32.

With `CN1CCN(c2nc(N)nc(COc3ccc(C(C)(C)C)cc3C(C)(C)C)n2)CC1` [Compound 13, 4-((2,4-(di-tert-Butyl)phenoxy)methyl)-6-(4-methylpiperazin-1-yl)-1,3,5-triazin-2-amine hydrochloride], the pKi at human D2R is 5.56; on human 5-HT2AR, 6.12; on human 5-HT7R, 5.07; on human 5-HT6R, 6.79.

On to `CC(C)c1ccc(OCCCc2nc(N)nc(N3CCN(C)CC3)n2)cc1` [Compound 16, 4-(3-(4-Isopropylphenoxy)propyl)-6-(4-methylpiperazin-1-yl)-1,3,5-triazin-2-amine], for which the melting point was determined as 92 °C. The pKi on human D2R is 6.15. Further, the negative logarithm of the Ki (pKi) at human 5-HT2AR is 5.93. This compound gave a pKi on human 5-HT7R of 5.29. At human 5-HT6R, this compound showed a pKi of 5.96.

The compound `Cc1ccccc1OCCCc1nc(N)nc(N2CCN(C)CC2)n1` [Compound 18, 4-(4-Methylpiperazin-1-yl)-6-(3-(o-tolyloxy)propyl)-1,3,5-triazin-2-amine] had a melting point of 83 °C. On human D2R, this compound showed a pKi of 5.75. The pKi on human 5-HT2AR was 5.84. On human 5-HT7R, this compound gave a negative logarithm of the Ki (pKi) of 4.83. The pKi on human 5-HT6R is 6.24.

Take `CC(C)c1ccccc1OCc1nc(N)nc(N2CCN(C)CC2)n1` [Compound 2, 4-((2-Isopropylphenoxy)methyl)-6-(4-methylpiperazin-1-yl)-1,3,5-triazin-2-amine]: the melting point lay within 140 to 142 °C. On human 5-HT2AR, this compound gave a pKi of 5.90. Besides, the pKi at human 5-HT7R was 4.79. In addition, on human 5-HT6R, the pKi was 7.68 and the “decrease in affinity for 5-HT6R compared to MST4” value was found to be 2 fold.

As to `CC(C)c1ccc(OCc2nc(N)nc(N3CCN(C)CC3)n2)cc1` [Compound 6, 4-((4-Isopropylphenoxy)methyl)-6-(4-methylpiperazin-1-yl)-1,3,5-triazin-2-amine], the melting point was in the range of 133 to 135 °C. The same compound gave a negative-log Ki (pKi) on human 5-HT2AR of 6.61. On human 5-HT7R, the negative logarithm of the Ki (pKi) is 4.99. Further, the pKi on human 5-HT6R is 6.38.

`CC(C)c1cccc(C(C)C)c1OCc1nc(N)nc(N2CCN(C)CC2)n1` [Compound 11, 4-((2,6-Diisopropylphenoxy)methyl)-6-(4-methylpiperazin-1-yl)-1,3,5-triazin-2-amine] gave a melting point of 160 to 163 °C. On human 5-HT2AR, this compound gave a pKi of 5.11. The compound further gave a negative logarithm of the Ki (pKi) at human 5-HT7R of 4.47. The same compound gave a pKi on human 5-HT6R of 6.08.

Consider `CN1CCN(c2nc(N)nc(COc3cccc(C(C)(C)C)c3)n2)CC1` [Compound 5, 4-((3-(tert-Butyl)phenoxy)methyl)-6-(4-methylpiperazin-1-yl)-1,3,5-triazin-2-amine], for which the melting point lay within 101.2 to 104.1 °C. For the same compound, the pKi on human 5-HT2AR is 5.51. At human 5-HT7R, this compound had a pKi of 4.81. The pKi on human 5-HT6R is 6.97.

Consider `Cc1cccc(OCc2nc(N)nc(N3CCN(C)CC3)n2)c1` [Compound 1], for which the “decrease in affinity for 5-HT6R compared to MST4” value at human 5-HT6R worked out at 19 fold.
